Measured values taken from patent publication US11691992B2 (Anacor Pharmaceuticals, Inc., priority 2017, dated 2023).

How the values were obtained:
Type in all cases: cell-based
[1] = system: IL3000 T. congolense (drug sensitive) strain; assay: In vitro Alamar Blue 72 h drug sensitivity assay for T. congolense; conditions: Trypanosoma congolense; bloodstream form, 69 h + 3 h resazurin, 34° C.; classes A-C; read-out: IC50: I Org. Growth T. congolense IL-3000, 3 d
Summary of the method: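 Bloodstream-form trypanosomes in HMI medium with 20% bovine serum, exposed to compound for 69 h at 34 °C, 5% CO2, then resazurin for 3 h more. Fluorescence read at 536/588 nm. IC50 from 11-point sigmoidal dose-response curves, at least three independent runs.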

[2] = system: luciferase-expressing L. major parasites developing intracellularly inside RAW 264.7 macrophages; assay: Leishmania major intracellular amastigote assay in RAW 264.7 macrophages (luciferase); conditions: RAW264.7, 96 hours, read-out: IC50: I Org. intracellular amastigote Growth L. major, 4 d
Summary of the method: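 RAW 264.7 macrophages infected overnight with luciferase-expressing L. major promastigotes, washed of extracellular parasites, then exposed to two-fold compound dilutions (final 0.5-10,000 ng/ml) for 96 h at 37° C, 5% CO2. Luciferin luminescence after 30 min; IC50 by sigmoidal variable-slope regression.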

[3] = system: TdTomato-modified T. cruzi (CL strain) in Vero cells; assay: In vitro IC50 measurement of T. cruzi amastigote killing using TdTomato-modified T. cruzi (CL strain); conditions: Trypanosoma cruzi, 72 h, fluorescence, read-out: IC50: I Org. amastigote Growth T. cruzi CL TdTomato, 3 d
Summary of the method: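 Vero cells were infected with tdTomato-expressing CL-strain parasites and dosed at 5 uM–5 nM. Fluorescence (ex 544/em 612 nm) was read at day 0 and again after 72 h at 37 °C, with day 0 values subtracted. IC50 and IC90 came from nonlinear regression.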

| Structure (SMILES) | IC50 [1] | IC50 [2] | IC50 [3] |
| --- | --- | --- | --- |
| O=C(Nc1ccc2c(c1)B(O)OC21CCC1)c1cn(-c2cccnc2)nn1 [Example 8, N-(1-hydroxy-1H-spiro[benzo[c][1,2]oxaborole-3,1′-cyclobutan]-6-yl)-1-(pyridin-3-yl)-1H-1,2,3-triazole-4-carboxamide] | 0.31 to 100 µM | 10 to 50 µM | 1.1 to 10 µM |
| O=C(Nc1ccc2c(c1)B(O)OC2)c1nnn(-c2cccc(F)c2)c1C(F)(F)F [Example 69, 1-(3-Fluorophenyl)-N-(1-hydroxy-1,3-dihydrobenzo[c][1,2]oxaborol-6-yl)-5-(trifluoromethyl)-1H-1,2,3-triazole-4-carboxamide] | 0.1 to 0.3 µM | ≤ 1 µM |  |
| Cc1ccc(-n2nnc(C(=O)Nc3ccc4c(c3)B(O)OC4C)c2C)cc1 (stereo not shown) [Example 13, N-(1-hydroxy-3-methyl-1,3-dihydrobenzo[c][1,2]oxaborol-6-yl)-5-methyl-1-(p-tolyl)-1H-1,2,3-triazole-4-carboxamide] | 0.1 to 0.3 µM | 1.1 to 9.9 µM | 0.6 to 1 µM |
| Cc1c(C(=O)Nc2ccc3c(c2)B(O)OC32CCC2)nnn1-c1cccnc1 [Example 17, N-(1-hydroxy-1H-spiro[benzo[c][1,2]oxaborole-3,1′-cyclobutan]-6-yl)-5-methyl-1-(pyridin-3-yl)-1H-1,2,3-triazole-4-carboxamide] | 0.31 to 100 µM | 10 to 50 µM | 1.1 to 10 µM |
| Cc1c(C(=O)Nc2ccc3c(c2)B(O)OC32CCC2)nnn1-c1ccccc1 [Example 4, N-(1-hydroxy-1H-spiro[benzo[c][1,2]oxaborole-3,1′-cyclobutan]-6-yl)-5-methyl-1-phenyl-1H-1,2,3-triazole-4-carboxamide] | 0.1 to 0.3 µM | ≤ 1 µM | 0.6 to 1 µM |
| CC1OB(O)c2cc(NC(=O)c3cn(-c4cccnc4)nn3)ccc21 (stereo not shown) [Example 12, N-(1-hydroxy-3-methyl-1,3-dihydrobenzo[c][1,2]oxaborol-6-yl)-1-(pyridin-3-yl)-1H-1,2,3-triazole-4-carboxamide] | < 0.1 µM | 1.1 to 9.9 µM | 0.6 to 1 µM |
| Cc1ccc(-n2cc(C(=O)Nc3ccc4c(c3)B(O)OC4)nn2)cc1 [Example 10, N-(1-hydroxy-1,3-dihydrobenzo[c][1,2]oxaborol-6-yl)-1-(p-tolyl)-1H-1,2,3-triazole-4-carboxamide] | < 0.1 µM | ≤ 1 µM | < 0.6 µM |
| COc1ccc(-n2nnc(C(=O)Nc3ccc4c(c3)B(O)OC4C)c2C)cc1 (stereo not shown) [Example 19, N-(1-hydroxy-3-methyl-1,3-dihydrobenzo[c][1,2]oxaborol-6-yl)-1-(4-methoxyphenyl)-5-methyl-1H-1,2,3-triazole-4-carboxamide] | 0.1 to 0.3 µM | ≤ 1 µM | 0.6 to 1 µM |
| COc1ccc(-n2cc(C(=O)Nc3ccc4c(c3)B(O)OC43CCC3)nn2)cc1 [Example 25, N-(1-hydroxy-1H-spiro[benzo[c][1,2]oxaborole-3,1′-cyclobutan]-6-yl)-1-(4-methoxyphenyl)-1H-1,2,3-triazole-4-carboxamide] | 0.31 to 100 µM | 10 to 50 µM | 0.6 to 1 µM |
| COc1ccc(-n2nnc(C(=O)Nc3ccc4c(c3)B(O)OC43CCC3)c2C)cc1 [Example 20, N-(1-hydroxy-1H-spiro[benzo[c][1,2]oxaborole-3,1′-cyclobutan]-6-yl)-1-(4-methoxyphenyl)-5-methyl-1H-1,2,3-triazole-4-carboxamide] | 0.31 to 100 µM | 10 to 50 µM | 1.1 to 10 µM |
| Cc1ccc(-n2nnc(C(=O)Nc3ccc4c(c3)B(O)OC4)c2C)cc1 [Example 11, N-(1-hydroxy-1,3-dihydrobenzo[c][1,2]oxaborol-6-yl)-5-methyl-1-(p-tolyl)-1H-1,2,3-triazole-4-carboxamide] | < 0.1 µM | 1.1 to 9.9 µM | 1.1 to 10 µM |
| Cc1c(C(=O)Nc2ccc3c(c2)B(O)OC3C)nnn1-c1cccnc1 (stereo not shown) [Example 14] | < 0.1 µM | 1.1 to 9.9 µM | 1.1 to 10 µM |
| Cc1ccc(-n2cc(C(=O)Nc3ccc4c(c3)B(O)OC43CCC3)nn2)cc1 [Example 15] | 0.1 to 0.3 µM | 10 to 50 µM | 1.1 to 10 µM |
| O=C(Nc1ccc2c(c1)B(O)OC2)c1nnn(-c2ccc(F)cc2)c1C(F)(F)F [Example 70, 1-(4-Fluorophenyl)-N-(1-hydroxy-1,3-dihydrobenzo[c][1,2]oxaborol-6-yl)-5-(trifluoromethyl)-1H-1,2,3-triazole-4-carboxamide] | 0.1 to 0.3 µM | ≤ 1 µM |  |
| Cc1c(C(=O)Nc2ccc3c(c2)B(O)OC3C)nnn1-c1ccccn1 (stereo not shown) [Example 24, N-(1-hydroxy-3-methyl-1,3-dihydrobenzo[c][1,2]oxaborol-6-yl)-5-methyl-1-(pyridin-2-yl)-1H-1,2,3-triazole-4-carboxamide] | < 0.1 µM | ≤ 1 µM | < 0.6 µM |
| Cc1ccc(-n2cc(C(=O)Nc3ccc4c(c3)B(O)OC4C)nn2)cc1 (stereo not shown) [Example 18, N-(1-hydroxy-3-methyl-1,3-dihydrobenzo[c][1,2]oxaborol-6-yl)-1-(p-tolyl)-1H-1,2,3-triazole-4-carboxamide] | < 0.1 µM | ≤ 1 µM | < 0.6 µM |
| O=C(Nc1ccc2c(c1)B(O)OC2)c1nnn(-c2ccccc2)c1C(F)(F)F [Example 68, N-(1-hydroxy-1,3-dihydrobenzo[c][1,2]oxaborol-6-yl)-1-phenyl-5-(trifluoromethyl)-1H-1,2,3-triazole-4-carboxamide] |  | ≤ 1 µM |  |
| O=C(Nc1ccc2c(c1)B(O)OC21CCC1)c1cn(-c2ccccn2)nn1 [Example 26, N-(1-hydroxy-1H-spiro[benzo[c][1,2]oxaborole-3,1′-cyclobutan]-6-yl)-1-(pyridin-2-yl)-1H-1,2,3-triazole-4-carboxamide] | 0.31 to 100 µM | 1.1 to 9.9 µM | 1.1 to 10 µM |
| CC1OB(O)c2cc(NC(=O)c3cn(-c4ccccn4)nn3)ccc21 (stereo not shown) [Example 23, N-(1-hydroxy-3-methyl-1,3-dihydrobenzo[c][1,2]oxaborol-6-yl)-1-(pyridin-2-yl)-1H-1,2,3-triazole-4-carboxamide] | < 0.1 µM | ≤ 1 µM | < 0.6 µM |
| O=C(Nc1ccc2c(c1)B(O)OC2)c1cn(-c2ccccn2)nn1 [Example 61, N-(1-hydroxy-1,3-dihydrobenzo[c][1,2]oxaborol-6-yl)-1-(pyridin-2-yl)-1H-1,2,3-triazole-4-carboxamide] | < 0.1 µM | 1.1 to 9.9 µM | < 0.6 µM |
| CC1OB(O)c2cc(NC(=O)c3cn(-c4ccccc4)nn3)ccc21 (stereo not shown) [Example 2] | < 0.1 µM | ≤ 1 µM | < 0.6 µM |
| COc1ccc(-n2nnc(C(=O)Nc3ccc4c(c3)B(O)OC4)c2C)cc1 [Example 91, N-(1-hydroxy-1,3-dihydrobenzo[c][1,2]oxaborol-6-yl)-1-(4-methoxyphenyl)-5-methyl-1H-1,2,3-triazole-4-carboxamide] | 0.1 to 0.3 µM | 1.1 to 9.9 µM |  |
| Cc1c(C(=O)Nc2ccc3c(c2)B(O)OC3C)nnn1-c1ccc(F)cc1 (stereo not shown) [Example 6, 1-(4-fluorophenyl)-N-(1-hydroxy-3-methyl-1,3-dihydrobenzo[c][1,2]oxaborol-6-yl)-5-methyl-1H-1,2,3-triazole-4-carboxamide] | 0.1 to 0.3 µM | ≤ 1 µM | 0.6 to 1 µM |
| Cc1c(C(=O)Nc2ccc3c(c2)B(O)OC3)nnn1-c1ccccn1 [Example 84, N-(1-hydroxy-1,3-dihydrobenzo[c][1,2]oxaborol-6-yl)-5-methyl-1-(pyridin-2-yl)-1H-1,2,3-triazole-4-carboxamide] | < 0.1 µM | 1.1 to 9.9 µM | 0.6 to 1 µM |
| O=C(Nc1ccc2c(c1)B(O)OC2)c1nnn(-c2ccccc2F)c1C(F)(F)F [Example 67, 1-(2-Fluorophenyl)-N-(1-hydroxy-1,3-dihydrobenzo[c][1,2]oxaborol-6-yl)-5-(trifluoromethyl)-1H-1,2,3-triazole-4-carboxamide] | 0.1 to 0.3 µM | ≤ 1 µM |  |
| Cc1c(C(=O)Nc2ccc3c(c2)B(O)OC32CCC2)nnn1-c1ccc(F)cc1 [Example 9, 1-(4-fluorophenyl)-N-(1-hydroxy-1H-spiro[benzo[c][1,2]oxaborole-3,1′-cyclobutan]-6-yl)-5-methyl-1H-1,2,3-triazole-4-carboxamide] | 0.31 to 100 µM | 10 to 50 µM | 1.1 to 10 µM |
| O=C(Nc1ccc2c(c1)B(O)OC2)c1cn(-c2ccc(F)cc2)nn1 [Example 60, 1-(4-Fluorophenyl)-N-(1-hydroxy-1,3-dihydrobenzo[c][1,2]oxaborol-6-yl)-1H-1,2,3-triazole-4-carboxamide] | < 0.1 µM |  |  |
| O=C(Nc1ccc2c(c1)B(O)OC2)c1nnn(-c2cccnc2)c1C(F)(F)F [Example 71, N-(1-hydroxy-1,3-dihydrobenzo[c][1,2]oxaborol-6-yl)-1-(pyridin-3-yl)-5-(trifluoromethyl)-1H-1,2,3-triazole-4-carboxamide] | < 0.1 µM | ≤ 1 µM |  |
| Cc1c(C(=O)Nc2ccc3c(c2)B(O)OC3)nnn1-c1ccccc1 [Example 89, A-(1-hydroxy-1,3-dihydrobenzo[c][1,2]oxaborol-6-yl)-5-methyl-1-phenyl-1H-1,2,3-triazole-4-carboxamide] |  | ≤ 1 µM |  |
